Source: patent US20050164182A1, “Nucleotide analogues” (priority 2001, published 2005)
Entries after “also recorded” stand apart in the source; their conditions may differ.

Assays:
[1] = target: T1, subtilisin (Subtilopeptidase A, type VIII) (Bacillus licheniformis, UniProt P00780); test: Protease mediated cleavage of FamHex-GGL-β-A-2′dU, HPLC and MALDI-TOF analysis; type: biochemical; settings: 2 hours at 37° C., pH 7.5
T1 construct: purchased Sigma Chemical Co. UK
T1 sequence (P00780 106-379): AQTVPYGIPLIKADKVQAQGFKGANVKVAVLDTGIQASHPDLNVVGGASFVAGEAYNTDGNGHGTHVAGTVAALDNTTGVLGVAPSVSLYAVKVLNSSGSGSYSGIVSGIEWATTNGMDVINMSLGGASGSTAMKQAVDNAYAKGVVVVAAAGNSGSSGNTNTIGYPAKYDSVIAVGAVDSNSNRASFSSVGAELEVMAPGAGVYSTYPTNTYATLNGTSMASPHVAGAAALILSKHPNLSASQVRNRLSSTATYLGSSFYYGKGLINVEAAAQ
Experimental: A 10 μg aliquot of the substrate FAMHEX-GGL-β-A 2′dU (compound 6 above) was dissolved in 0.1M sodium acetate buffer pH 7.5 containing 5 mM calcium acetate. The substrate solution was digested at 37° C. for 2 hours in 200 μl in the presence of 0.5 units of subtilisin (Subtilopeptidase A, type VIII, Sigma Chemical Co. UK).
The resulting digest was ultrafiltered using a Microcon YM10 Concentrator (Milipore Ltd., UK) and the filtrate analysed by HPLC (Gilson 170, Gilson, UK) on a Sephasil™ peptide C-18 column (Amersham Biosicences, UK). […] These eluted at 29.8 (I), 32.6 (II), 26.7 (III) and 37.1 (IV) minutes on an acetonitrile gradient of 50% to 70%. The peaks were collected and analysed by MALDI-TOF mass spectrometry (Bruker Biflex II, Brucker, Germany). A matrix of 10 mg/ml 3-hydroxycinnamic acid in acetonitrile and 1% TFA was used for the analysis. The mass spectrometer was calibrated with 100 mM Bradykinin 1-7 (Sigma Chemical Co., UK).

[2] = test system: Thermosequenase; test: Primer extension reactions: incorporation of fluorescently labelled deoxynucleotide triphosphates by DNA polymerase; type: biochemical; settings: number of consecutive fluor-labelled nucleotides added; templates with 2, 3 or 8 consecutive A residues; 48° C. for 45 minutes

## 5-N-[N-(6-Fluorescein-5(and 6)carboxamidohexanoyl)-Gly-Gly-Leu-β-alanyl]-propargylamino-2′-deoxyuridine [Compound 6]
[1]
  cleavage of the linker by subtilisin: consistent with the cleavage of the linker by the subtilisin enzyme; also recorded: readily digested by subtilisin
[1]; molecular ion of 717 in peak II
  site of hydrolysis by subtilisin: at the peptide bond on the carboxyl side of the leucine residue; also recorded: cleaves at the leucine residue

## Alexa Fluor 568-5-dUTP [Alexa 568-5-dUTP]
[2]
  predominant product with templates 3, 4 and 5: One addition

## Alexa Fluor 594-5-dUTP [Alexa 594-5-dUTP]
[2]
  predominant product with templates 3, 4 and 5: One addition

## Cy3 dUTP
[2]
  predominant product with templates 3, 4 and 5: One addition, with minor two additions

## Cy5 dUTP
[2]
  predominant product with templates 3, 4 and 5: One addition, with minor two additions

## Lissamine-5-dUTP
[2]
  predominant product with templates 3, 4 and 5: One addition, with very slight two additions

## Texas Red-5-dUTP
[2]
  predominant product with templates 3, 4 and 5: One addition, with very slight two additions
